# Like-named read-outs stand apart in the source and are kept apart here.
# Key:
# [1] = tested on: T47D (PI3Kα H1047R mutant) cells; assay: CellTiter-Glo 2.0 luminescent cell viability assay, 72 hours, T47D cells; type: cell-based; settings: T47D (PI3Kα H1047R mutant) cells, CellTiter-Glo, approximately 72 hours, read-out: T47D (H1047R mutant) Viability IC50
# In short: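 Cells seeded at 1000 per well overnight were dosed with a 10-concentration, 1:4 series starting at 10 µM and incubated ~72 h at 37° C. Viability was read by CellTiter-Glo 2.0 luminescence after 30 min at room temperature. IC50 came from four-parameter fits of percent vehicle control.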
# [2] = tested on: SKBR3 (PI3Kα wild type) cells; assay: CellTiter-Glo 2.0 luminescent cell viability assay, 72 hours, SKBR3 cells; type: cell-based; settings: SKBR3 (PI3Kα wild type) cells, CellTiter-Glo, approximately 72 hours, read-out: SKBR3 (WT) Viability IC50
# In short: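 Viability measured via CTG luminescence following roughly 72 hours of compound exposure at 37° C. Dosing used a 10 um starting concentration diluted 1:4 over 10 points; percent-of-vehicle data fitted with a variable-slope four-parameter model for IC50.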
SMILES,"IC50 ([1]; Homo sapiens, T47D, 72 h) [µM]","IC50 ([2]; Homo sapiens, SK-BR-3, 72 h) [µM]",IC50 [1] [µM],IC50 [2] [µM]
"Cc1cc([C@@H](C)Nc2ccccc2C(=O)O)c2nc(N3CCC(C)CC3)c(C#N)c(=O)n2c1 [Example 11-314, (R)-2-((1-(3-cyano-7-methyl-2-(4-methylpiperidin-1-yl)-4-oxo-4H-pyrido[1,2-a]pyrimidin-9-yl)ethyl)amino)benzoic acid]",0.146,> 10,–,–
"Cc1cc([C@@H](C)Nc2ccccc2C(=O)O)c2nc(N[C@H](C)C3CC3)c(C)c(=O)n2c1 [Example 11-167, 2-(((R)-1-(2-(((R)-1-cyclopropylethyl)amino)-3,7-dimethyl-4-oxo-4H-pyrido[1,2-a]pyrimidin-9-yl)ethyl)amino)benzoic acid]",1.18,> 10,–,–
"Cc1cc([C@H](C)Nc2ccc(Cl)nc2C(=O)O)c2nc(N3CCCCC3)c(C)c(=O)n2c1 [Example 11-357, (S)-6-chloro-3-((1-(3,7-dimethyl-4-oxo-2-(piperidin-1-yl)-4H-pyrido[1,2-a]pyrimidin-9-yl)ethyl)amino)picolinic acid]",0.195,> 10,–,–
"Cc1cc([C@@H](C)Nc2ccccc2C(=O)O)c2nc(-c3cnn(-c4ccc(C#N)cc4)c3)c(C)c(=O)n2c1 [Example 11-233, (R)-2-((1-(2-(1-(4-cyanophenyl)-1H-pyrazol-4-yl)-3,7-dimethyl-4-oxo-4H-pyrido[1,2-a]pyrimidin-9-yl)ethyl)amino)benzoic acid]",0.212,> 10,–,–
"Cc1cc([C@@H](C)Nc2ccccc2C(=O)O)c2nc(N3CCN(CC(F)F)CC3)c(C#N)c(=O)n2c1 [Example 11-42, (R)-2-((1-(3-cyano-2-(4-(2,2-difluoroethyl)piperazin-1-yl)-7-methyl-4-oxo-4H-pyrido[1,2-a]pyrimidin-9-yl)ethyl)amino)benzoic acid]",0.172,> 10,–,–
"Cc1cc(C#N)c2nc(N3CCCCC3)cc(=O)n2c1 [Example 11-409, 7-methyl-4-oxo-2-(piperidin-1-yl)-4H-pyrido[1,2-a]pyrimidine-9-carbonitrile]",> 10,> 10,–,–
"Cc1cc([C@@H](C)Nc2ccccc2C(=O)O)c2nc(N3CC(O)C4CCCCC43)c(C)c(=O)n2c1 (stereo partly drawn) [Example 11-31, 2-(((1R)-1-(2-(3-hydroxyoctahydro-1H-indol-1-yl)-3,7-dimethyl-4-oxo-4H-pyrido[1,2-a]pyrimidin-9-yl)ethyl)amino)benzoic acid]",0.328,> 10,–,–
"Cc1cc([C@@H](C)Nc2ccc(Cl)cc2C(=O)O)c2nc(N3Cc4ccccc4C3)c(C)c(=O)n2c1 [Example 11-280, (R)-5-chloro-2-((1-(2-(isoindolin-2-yl)-3,7-dimethyl-4-oxo-4H-pyrido[1,2-a]pyrimidin-9-yl)ethyl)amino)benzoic acid]",0.383,> 10,–,–
"Cc1cc([C@@H](C)Nc2ccccc2C(=O)O)c2nc(N3Cc4cc(F)c(F)cc4C3)c(C)c(=O)n2c1 [Example 11-188, (R)-2-((1-(2-(5,6-difluoroisoindolin-2-yl)-3,7-dimethyl-4-oxo-4H-pyrido[1,2-a]pyrimidin-9-yl)ethyl)amino)benzoic acid]",–,–,0.152,> 10
"Cc1cc(C(C)Nc2ccc(Cl)nc2C(=O)O)c2nc(N3CCCCC3)c(C)c(=O)n2c1 (stereo not shown) [Example 11-359, 6-chloro-3-((1-(3,7-dimethyl-4-oxo-2-(piperidin-1-yl)-4H-pyrido[1,2-a]pyrimidin-9-yl)ethyl)amino)picolinic acid]",0.362,8.11,–,–
"CCC(Nc1ccccc1C(=O)O)c1cc(C)cn2c(=O)cc(N3CCCCC3)nc12 (stereo not shown) [Example 11-411, 2-((1-(7-methyl-4-oxo-2-(piperidin-1-yl)-4H-pyrido[1,2-a]pyrimidin-9-yl)propyl)amino)benzoic acid]",> 10,> 10,–,–

# Further lines, results first:
"IC50 ([1]; Homo sapiens, T47D, 72 h) [µM]","IC50 ([2]; Homo sapiens, SK-BR-3, 72 h) [µM]",IC50 [1] [µM],IC50 [2] [µM],SMILES
0.401,> 10,–,–,"Cc1cc([C@@H](C)Nc2ccccc2C(=O)O)c2nc(N3CC4CCC3CC4O)c(C)c(=O)n2c1 (stereo partly drawn) [Example 11-30, 2-(((1R)-1-(2-(5-hydroxy-2-azabicyclo[2.2.2]octan-2-yl)-3,7-dimethyl-4-oxo-4H-pyrido[1,2-a]pyrimidin-9-yl)ethyl)amino)benzoic acid]"
0.383,> 10,–,–,"Cc1cc([C@@H](C)Nc2ccccc2C(=O)O)c2nc(NC[C@@H]3CCOC3)c(C)c(=O)n2c1 [Example 11-195, 2-(((R)-1-(3,7-dimethyl-4-oxo-2-((((S)-tetrahydrofuran-3-yl)methyl)amino)-4H-pyrido[1,2-a]pyrimidin-9-yl)ethyl)amino)benzoic acid]"
6.87,> 10,–,–,"Cc1cc(C(C)Nc2ccccc2C(=O)O)c2nc(-c3ccccn3)cc(=O)n2c1 (stereo not shown) [Example 11-402, 2-((1-(7-methyl-4-oxo-2-(pyridin-2-yl)-4H-pyrido[1,2-a]pyrimidin-9-yl)ethyl)amino)benzoic acid]"
0.508,> 10,–,–,"Cc1cc([C@@H](C)Nc2ccccc2C(=O)O)c2nc(N3CCC(C)(C#N)CC3)c(C#N)c(=O)n2c1 [Example 11-68, (R)-2-((1-(3-cyano-2-(4-cyano-4-methylpiperidin-1-yl)-7-methyl-4-oxo-4H-pyrido[1,2-a]pyrimidin-9-yl)ethyl)amino)benzoic acid]"
0.174,10,–,–,"Cc1cc([C@@H](C)Nc2ccc(Cl)nc2C(=O)O)c2nc(N3CCN(c4ccc(C#N)cc4C)CC3)c(C)c(=O)n2c1 [Example 11-133, (R)-6-chloro-3-((1-(2-(4-(4-cyano-2-methylphenyl)piperazin-1-yl)-3,7-dimethyl-4-oxo-4H-pyrido[1,2-a]pyrimidin-9-yl)ethyl)amino)picolinic acid]"
4.67,> 10,–,–,"Cc1cc([C@@H](C)Nc2ccccc2C(=O)O)c2nc(N3CCn4cncc4C3)c(C)c(=O)n2c1 [Example 11-430, (R)-2-((1-(2-(5,6-dihydroimidazo[1,5-a]pyrazin-7(8H)-yl)-3,7-dimethyl-4-oxo-4H-pyrido[1,2-a]pyrimidin-9-yl)ethyl)amino)benzoic acid]"
2.89,> 10,–,–,"Cc1cc(C(C)Nc2c(F)cccc2C(=O)O)c2nc(N3Cc4ccccc4C3)c(C)c(=O)n2c1 (stereo not shown) [Example 11-363, 3-fluoro-2-((1-(2-(isoindolin-2-yl)-3,7-dimethyl-4-oxo-4H-pyrido[1,2-a]pyrimidin-9-yl)ethyl)amino)benzoic acid]"
0.0801,> 10,–,–,"Cc1cc([C@@H](C)Nc2ccccc2C(=O)O)c2nc(N3CCC(c4ccccn4)C3)c(C)c(=O)n2c1 (stereo partly drawn) [Example 10-142, 2-(((1R)-1-(3,7-dimethyl-4-oxo-2-(3-(pyridin-2-yl)pyrrolidin-1-yl)-4H-pyrido[1,2-a]pyrimidin-9-yl)ethyl)amino)benzoic acid]"
0.123,> 10,–,–,"Cc1cc([C@@H](C)Nc2ccccc2C(=O)O)c2nc(N3CC4CC(C)(C)C4C3)c(C)c(=O)n2c1 (stereo partly drawn) [Example 11-24, 2-(((1R)-1-(2-(6,6-dimethyl-3-azabicyclo[3.2.0]heptan-3-yl)-3,7-dimethyl-4-oxo-4H-pyrido[1,2-a]pyrimidin-9-yl)ethyl)amino)benzoic acid]"
0.356,> 10,–,–,"Cc1cc([C@@H](C)Nc2ccccc2C(=O)O)c2nc(N3CCN(c4nc5cc(C(F)(F)F)ccc5s4)CC3)c(C)c(=O)n2c1 [Example 11-435, (R)-2-((1-(3,7-dimethyl-4-oxo-2-(4-(5-(trifluoromethyl)benzo[d]thiazol-2-yl)piperazin-1-yl)-4H-pyrido[1,2-a]pyrimidin-9-yl)ethyl)amino)benzoic acid]"
0.358,> 10,–,–,"Cc1cc([C@@H](C)Nc2ccc(Cl)cc2C(=O)O)c2nc(N3CCC(F)(F)CC3)c(C)c(=O)n2c1 [Example 11-91, (R)-5-chloro-2-((1-(2-(4,4-difluoropiperidin-1-yl)-3,7-dimethyl-4-oxo-4H-pyrido[1,2-a]pyrimidin-9-yl)ethyl)amino)benzoic acid]"
0.0642,> 10,–,–,"Cc1cc([C@@H](C)Nc2ccccc2C(=O)O)c2nc(N3CC4CC3CC4C)c(C)c(=O)n2c1 (stereo partly drawn) [Example 10-136, 2-(((1R)-1-(3,7-dimethyl-2-(5-methyl-2-azabicyclo[2.2.1]heptan-2-yl)-4-oxo-4H-pyrido[1,2-a]pyrimidin-9-yl)ethyl)amino)benzoic acid]"
5.49,> 10,–,–,"Cc1cc(C(C)Nc2cnc(Cl)cc2C(=O)O)c2nc(N3Cc4ccccc4C3)c(C)c(=O)n2c1 (stereo not shown) [Example 11-348, 2-chloro-5-((1-(2-(isoindolin-2-yl)-3,7-dimethyl-4-oxo-4H-pyrido[1,2-a]pyrimidin-9-yl)ethyl)amino)isonicotinic acid]"
–,> 10,0.11,–,"Cc1cc([C@@H](C)Nc2ccccc2C(=O)O)c2nc(N3CCN(c4ccc(C#N)cc4)CC3C)c(C)c(=O)n2c1 (stereo partly drawn) [Example 11-269, 2-(((1R)-1-(2-(4-(4-cyanophenyl)-2-methylpiperazin-1-yl)-3,7-dimethyl-4-oxo-4H-pyrido[1,2-a]pyrimidin-9-yl)ethyl)amino)benzoic acid]"
0.159,> 10,–,–,"Cc1cc([C@@H](C)Nc2ccccc2C(=O)O)c2nc(N3CC(F)(F)[C@H]3C)c(C)c(=O)n2c1 [Example 11-96, 2-(((R)-1-(2-((R)-3,3-difluoro-2-methylazetidin-1-yl)-3,7-dimethyl-4-oxo-4H-pyrido[1,2-a]pyrimidin-9-yl)ethyl)amino)benzoic acid]"

# Reference: patent US20260078120A1, “SUBSTITUTED PYRIDOPYRIMIDINONES” (MIRATI THERAPEUTICS, INC., priority 2022, published 2026)
